Results on 14 compounds are retold here after PubChem BioAssay (NCI).

Holding throughout (experiment): DTP human tumour cell line panel, 48 h
Test [1] deals with OVCAR-8 ovarian.
In test [2] the test system is SNB-19 CNS.
Test [3] deals with HOP-62 NSCLC.
Test [4] has as its system U251 CNS.
For test [5], the system named is A549 NSCLC.
The test system of test [6] is NCI-H226 lung.
Test [7] deals with NCI-H522 lung.
Test [8] has as its system HS 578T breast.
Test [9] has as its system HT29 colon.
In test [10] the test system is SF-295 CNS.

Structures are written as SMILES.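 Compound exposure: 48 hours, 5 concentrations, 96-well plates. TGI: total growth inhibition.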

What is called TGI is the concentration giving total growth inhibition. Read a high TGI as lower sensitivity of the cells. Regarding `Cc1ccc2c3c1[C@@H]1O[C@@H]1c1cccc(c1-3)[C@@H]1O[C@H]21`, the TGI in [1] was 40.5 µM; in test [2] it was 49.9 µM; in test [3], 32 µM; in test [4], 28.9 µM; in [5] it was 34.1 µM; in [6] it was 84.7 µM. Besides, the TGI in [7] amounted to 29.6 µM; in [8], 60.2 µM; in test [9], 23.4 µM; in test [10] it was 31.4 µM.
For `N#Cc1c(-c2ccc(Cl)cc2)c2c([nH]c1=O)-c1cc([N+](=O)[O-])ccc1CCC2`, the TGI was found to be 50.8 µM in test [1]; 56.8 µM in test [2]; 45.9 µM in [3]; 41.6 µM in test [4]; 82.9 µM in test [5]; 44.2 µM in [6]. Moreover, the TGI in test [7] came to 41.8 µM; in [8], 99.2 µM; in [9] it was 75.5 µM; in test [10] it was 45.3 µM.
For the compound `COP(=O)(OC)[C@H](O)[C@H]1C[C@@H]1c1ccccc1`, the total growth inhibition concentration (TGI) in test [1], in [2], in [3], in [4], in [5] and in test [6] was more than 100 µM each time. Also, the TGI in [7], in test [8], in [9] and in [10] was more than 100 µM throughout.
With `NC(=O)CCSC(CC(=O)c1ccc(Cl)cc1)c1ccc(Cl)cc1` (centres undefined), the TGI was 32.3 µM in [1]; more than 100 µM in test [2]; 93.1 µM in test [3]; 34.5 µM in test [4]; more than 100 µM in [5]; more than 100 µM in [6]. Further, the TGI is 80.3 µM in [7], more than 100 µM in test [8], more than 100 µM in test [9] and 78.1 µM in [10].
Turning to `CCN(CCO)CCNc1ccc(C)c2sc3ccccc3c(=O)c12`, the TGI turned out to be 14.2 µM in [1]; 24.7 µM in [2]; 11 µM in test [3]; 12.4 µM in [4]; 15.2 µM in test [5]; 14 µM in test [6]. In addition, the TGI in test [7] was 11.4 µM; in test [8], 7.49 µM; in test [9] it was 6.31 µM; in test [10], 10.1 µM.
On to `O=c1[nH]c2cc([N+](=O)[O-])c(N/N=C/c3ccc(Cl)cc3Cl)c([N+](=O)[O-])c2[nH]1`, for which the TGI in test [1], in [2], in test [3], in test [4], in test [5] and in test [6] was more than 100 µM throughout. Further, the TGI was 94 µM in [7], more than 100 µM in [8], more than 100 µM in test [9] and more than 100 µM in test [10].
`O=CN1CCC23CC(O)CCC2C1Cc1cc(Oc2nnnn2-c2ccccc2)cc(O)c13` (centres undefined): the TGI in test [1], in test [2], in test [3], in test [4], in test [5] and in [6] was more than 100 µM each time. In addition, the TGI in [7], in [8], in test [9] and in test [10] was more than 100 µM throughout.
With `COc1ccc2c(c1)CCCc1c-2nc2ccccc2c1N`, the TGI in test [1] turned out to be 26.8 µM; in test [2], 31.8 µM; in test [3] it was 12.9 µM; in test [4], 25.2 µM; in test [5], 25.7 µM; in [6], 28.4 µM. The TGI came out at 28 µM in test [7], 45.3 µM in test [8], 13.7 µM in test [9] and 23.1 µM in test [10].
Consider `COc1ccc(N=Nc2c(N)nn(C)c2N)cc1`, for which the TGI in test [1], in test [2], in test [3], in test [4], in [5] and in test [6] was more than 100 µM throughout. The TGI in test [7], in [9] and in test [10] was more than 100 µM throughout.
On to `O=C(NC(Cc1ccc(Cl)cc1)C(=O)O)c1ccc(I)cc1` (centres undefined), for which the TGI in [1], in [2], in [3], in [4], in [5] and in test [6] was more than 100 µM in each case. Also, the TGI in [7], in test [9] and in test [10] was more than 100 µM throughout.
Consider `CCOC(=O)C12CC(C)=C(C)CC1CCCc1ccccc12` (centres undefined), for which the TGI in test [1] is more than 100 µM; in test [2], 83 µM; in test [3] it was more than 100 µM; in [4], 39.6 µM; in test [5] it was more than 100 µM; in [6], 56 µM. Besides, the TGI in test [7] was 39.5 µM; in [8] it was more than 100 µM; in [9] it was 36.5 µM; in test [10], 86.3 µM.
In the case of `CCCCCCCCCCCCSC(=S)c1c(C)[nH]n(CCCCCCCCCCCC)c1=O`, the TGI in [1], in test [2], in test [3], in test [4], in test [5] and in test [6] was more than 100 µM throughout. For the same compound, the TGI in test [7], in test [9] and in test [10] was more than 100 µM in each case.
As for `CCCC[C@H]1C(=O)O[C@H](C)[C@H](NC(=O)c2cccc(NC=O)c2OC)C(=O)O[C@@H](C)[C@@H]1OC(=O)CC(C)C` (tested in a mixture with another compound), the TGI in [1] was 34.7 µM; in test [2], 22.3 µM; in test [3], 44.5 µM; in test [4], 18.9 µM; in test [5] it was 23 µM; in [6], 35 µM. In addition, the total growth inhibition concentration (TGI) stood at 21 µM in test [7], 63.1 µM in test [8], 33.1 µM in [9] and 30.3 µM in test [10].
As to `COc1cc(C2C(=O)C(Cl)N2Nc2nc(C)cc(=O)[nH]2)cc(OC)c1OC` (centres undefined), the TGI in test [1] is more than 100 µM; in [2] it was more than 100 µM; in test [3], more than 100 µM; in test [4] it was 36.3 µM; in test [5], more than 100 µM; in test [6], 62.6 µM. In test [9], this compound returned a TGI of 66.2 µM.
